Earlier results in patent US11230541B2, “Heterocyclic compound” (Takeda Pharmaceutical Company Limited, priority 2017, dated 2022).

How the values were obtained:
[1] = target: NMDA receptor containing the NR2B subunit (Homo sapiens, UniProt Q13224); settings: in vivo; cited from earlier work
NMDA receptor = settings: in vivo; cited from earlier work

Sequence of NMDA receptor containing the NR2B subunit (Q13224 27-1484, other chains not shown): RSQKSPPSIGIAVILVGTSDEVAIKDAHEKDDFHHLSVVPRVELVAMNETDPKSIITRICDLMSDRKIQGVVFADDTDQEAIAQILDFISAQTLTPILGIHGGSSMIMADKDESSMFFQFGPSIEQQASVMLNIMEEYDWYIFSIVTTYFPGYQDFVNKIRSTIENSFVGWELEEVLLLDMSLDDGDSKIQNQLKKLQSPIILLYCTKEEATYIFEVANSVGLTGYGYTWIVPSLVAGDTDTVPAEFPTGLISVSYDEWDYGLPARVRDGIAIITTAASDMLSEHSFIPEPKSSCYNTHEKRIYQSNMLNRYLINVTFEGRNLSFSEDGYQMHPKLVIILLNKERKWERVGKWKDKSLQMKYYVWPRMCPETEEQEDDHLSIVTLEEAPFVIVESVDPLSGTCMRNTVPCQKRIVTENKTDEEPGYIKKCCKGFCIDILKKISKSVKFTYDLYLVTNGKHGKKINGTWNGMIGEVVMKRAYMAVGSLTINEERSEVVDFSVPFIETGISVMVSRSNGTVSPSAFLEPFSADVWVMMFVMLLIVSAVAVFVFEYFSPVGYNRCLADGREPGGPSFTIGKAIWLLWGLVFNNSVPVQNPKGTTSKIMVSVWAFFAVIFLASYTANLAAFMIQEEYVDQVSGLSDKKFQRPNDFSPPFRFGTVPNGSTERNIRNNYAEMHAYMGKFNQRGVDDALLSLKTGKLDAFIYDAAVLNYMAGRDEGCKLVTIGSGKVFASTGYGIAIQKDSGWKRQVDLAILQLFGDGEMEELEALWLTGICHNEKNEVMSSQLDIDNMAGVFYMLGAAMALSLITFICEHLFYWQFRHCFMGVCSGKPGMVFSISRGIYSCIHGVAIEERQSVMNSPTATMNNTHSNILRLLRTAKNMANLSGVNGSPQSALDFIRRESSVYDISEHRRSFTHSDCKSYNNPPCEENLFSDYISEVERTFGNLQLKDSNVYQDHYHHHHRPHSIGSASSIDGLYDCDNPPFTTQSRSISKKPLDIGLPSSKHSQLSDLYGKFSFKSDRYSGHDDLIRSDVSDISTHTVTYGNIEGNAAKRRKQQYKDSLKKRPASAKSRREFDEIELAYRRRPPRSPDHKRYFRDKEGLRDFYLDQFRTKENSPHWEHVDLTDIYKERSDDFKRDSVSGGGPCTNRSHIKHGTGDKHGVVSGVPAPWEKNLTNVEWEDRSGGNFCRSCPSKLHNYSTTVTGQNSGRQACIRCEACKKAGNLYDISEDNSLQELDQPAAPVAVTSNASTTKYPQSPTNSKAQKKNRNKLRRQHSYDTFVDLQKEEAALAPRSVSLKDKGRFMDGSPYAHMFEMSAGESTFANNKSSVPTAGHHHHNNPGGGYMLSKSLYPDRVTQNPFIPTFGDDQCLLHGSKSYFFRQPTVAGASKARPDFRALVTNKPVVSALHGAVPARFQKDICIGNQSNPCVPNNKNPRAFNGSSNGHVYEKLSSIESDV

For `CC(C(O)c1ccc(O)cc1)N1CCC(Cc2ccccc2)CC1` (centres unmarked) [Ifenprodil], the pain sense threshold [1] is given as “pain sense threshold increases”.

In the case of `CC12CC3CC(C)(C1)CC(N)(C3)C2` [memantine], the “peripheral symptoms of dementia” value (NMDA receptor) is given as “partially improves peripheral symptoms of dementia”.
